Assay results as given in patent US20020111356A1, “Arylalkylpyridazinones” (MERCK KGAA, priority 1995, published 2002).

melting point: 126 °C
SMILES: COc1ccc(C2=NN(Cc3ccc([N+](=O)[O-])cc3)C(=O)CC2)cc1OC [Example 1, 2-(4-Nitrobenzyl)-6-(3,4-dimethoxyphenyl) -2,3,4,5-tetrahydropyridazin-3-one]
